Measured values from patent US9630977B2, “Cephalosporin derivatives and pharmaceutical compositions thereof” (Legochem Biosciences, Inc., priority 2011, dated 2017).
≈ marks a conversion by molar mass, not a printed value. Where two headings read alike, the source gives them in different places.

Legend:
A. baumannii 46 = assay: In vitro antibacterial activity test (broth microdilution); assay type: cell-based; settings: Acinetobacter baumannii; A. baumannii 46; read-out: MIC90
In short: (§1)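 MIC90 was determined by CLSI broth microdilution against clinical isolates, as the lowest concentration inhibiting visible growth of 90% of organisms relative to untreated control. Final compound concentrations spanned 0.0626–128 ug/mL with 2.5% (V/V) DMSO.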

A. baumannii 49 = assay: as above; assay type: cell-based; settings: Acinetobacter baumannii; A. baumannii 49; read-out: MIC90
In short: as §1

A. baumannii 52 = assay: as above; assay type: cell-based; settings: Acinetobacter baumannii; A. baumannii 52; read-out: MIC90
In short: as §1

[1] = test system: A. calcoaceticus ATCC15473; assay: as above; assay type: cell-based; settings: Acinetobacter calcoaceticus; A. calcoaceticus ATCC15473; read-out: MIC90
In short: as §1

E. cloacae β19 = assay: as above; assay type: cell-based
In short: as §1

E. coli AG100 = assay: as above; assay type: cell-based; settings: Escherichia coli, AG100, E. coli AG100; read-out: MIC90
In short: as §1

E. coli β4 = assay: as above; assay type: cell-based; settings: Escherichia coli, read-out: MIC90
In short: as §1

K. pneumoniae 2011E = assay: as above; assay type: cell-based; settings: Klebsiella pneumoniae, 2011E, K. pneumoniae 2011E; read-out: MIC90
In short: as §1

K. pneumoniae β10 = assay: as above; assay type: cell-based; settings: Klebsiella pneumoniae; K. pneumoniae β10; read-out: MIC90
In short: as §1

K. pneumoniae β11 = assay: as above; assay type: cell-based; settings: Klebsiella pneumoniae; K. pneumoniae β11; read-out: MIC90
In short: as §1

K. pneumoniae β13 = assay: as above; assay type: cell-based; settings: K. pneumoniae β13
In short: as §1

K. pneumoniae β14 = assay: as above; assay type: cell-based; settings: Klebsiella pneumoniae, read-out: MIC90
In short: as §1

K. pneumoniae β9 = assay: as above; assay type: cell-based; settings: Klebsiella pneumoniae, K. pneumoniae β9; read-out: MIC90
In short: as §1

M. catarrhalis 2524 = assay: as above; assay type: cell-based; settings: M. catarrhalis 2524
In short: as §1

P. aeruginosa 1912E = assay: as above; assay type: cell-based
In short: as §1

P. aeruginosa 37 = assay: as above; assay type: cell-based; settings: Pseudomonas aeruginosa, 37, P. aeruginosa 37; read-out: MIC90
In short: as §1

P. aeruginosa 40 = assay: as above; assay type: cell-based; settings: Pseudomonas aeruginosa, 40, P. aeruginosa 40; read-out: MIC90
In short: as §1

P. aeruginosa 43 = assay: as above; assay type: cell-based; settings: Pseudomonas aeruginosa; P. aeruginosa 43; read-out: MIC90
In short: as §1

P. aeruginosa 6065Y = assay: as above; assay type: cell-based
In short: as §1

[2] = test system: A. baumannii (6 clinical isolates); assay: Antibacterial activity on representative drug-resistance bacteria: number of clinical isolates per MIC value; assay type: cell-based; settings: A. baumanni (N = 6)
Method: (§2) The in vitro antibacterial activity was evaluated by measuring MIC90 (ug/mL) of each of the compounds of Examples 1 to 68, which is defined as the lowest concentration of an antibiotic that will inhibit the visible growth of 90% of microorganisms after incubation as compared with a control group to which the antibiotic is not treated. MIC90 values were measured by the broth microdilution method developed by the Clinical and Laboratory Standards Institute (CLSI) (see CLSI M7-A5, Methods for Dilution Antimicrobial Susceptibility Test for Bacteria that Grow Aerobically-Fifth Edition (2000): CLSI, Villanova, Pa.).
(§3) Test compounds each (the cephalosporin derivative compounds prepared in Examples 1 to 68) were dissolved in DMSO at the concentration of 10,240 ug/mL, were diluted by two fold with DMSO, and then were diluted by twenty fold with sterilized distilled water. The final concentration in the antibacterial activity test was in the range of […] to 128 ug/mL, and the final concentration of DMSO used as an adjuvant was 2.5% (V/V).

[3] = test system: K. pneumoniae (38 clinical isolates); assay: as above; assay type: cell-based; settings: K. pneumomiae (N = 38)
Method: as §2, §3

[4] = test system: P. aeruginosa (16 clinical isolates); assay: as above; assay type: cell-based; settings: P. aeruginosa (N = 16)
Method: as §2, §3

[5] = Pharmacokinetics study in rat, IV; assay type: in vivo, SD rat; settings: Rat (10 mg/kg) single IV; for AUC / Cmax / Tmax / clearance / half-life / Vd: SD, plasma; for Vd: read-out: Vss
Method: Test animals: 9 week old SD rat, weight 290˜310 g; 3 rats/sample time point
Lab conditions: Temperature of 21±2° C.; humidity of 50±20%
Administration method: Injecting test compound solution through tail vein (IV)
Test method: Blood samples were taken from jugular vein at a predetermined time period for 24 hours after administration, plasma was separated, and quantified by using LC-MS/MS.

19 clinical isolates = assay: In vitro antibacterial activity test, panel of 19 clinical isolates as a whole; assay type: cell-based; settings: effect of a siderophore group, Table 1
Method: To evaluate antibacterial activity of each of the compounds of Examples 1 to 68, in vitro antibacterial activity test was performed.
as §2
In vitro antibacterial activity was measured with respect to the following 19 clinical isolates: M. catarrhalis; P. aeruginosa (5 strains); K. pneumoniae (6 strains); A. baumannii (3 strains); E. coli (2 strains); A. calcoaceticus; and E. cloacae.
as §3

In the case of `C[C@H](O/N=C(\C(=O)N[C@@H]1C(=O)N2C(C(=O)[O-])=C(C[n+]3cnc(N)c(NCCNC(=O)c4cc(=O)c(O)cn4O)c3)CSC12)c1nc(N)sc1Cl)C(=O)O` (stereo partly shown) [Compound 4], the MIC90 (A. baumannii 46) is reported as 64 µg/mL (≈ 80.6 µM), the MIC90 (A. baumannii 49) is reported as 8 µg/mL (≈ 10.1 µM) and the MIC90 (A. baumannii 52) is reported as 4 µg/mL (≈ 5.04 µM). The MIC90 [1] was 2 µg/mL (≈ 2.52 µM), the MIC90 (E. cloacae β19; Enterobacter cloacae, read-out: MIC90) was 1 µg/mL (≈ 1.26 µM) and the MIC90 (E. coli AG100) was 0.125 µg/mL (≈ 0.157 µM). The MIC90 (E. coli β4) was 0.5 µg/mL (≈ 0.63 µM), the MIC90 (K. pneumoniae 2011E) was 2 µg/mL (≈ 2.52 µM) and the MIC90 (K. pneumoniae β10) was 0.5 µg/mL (≈ 0.63 µM). It also gave an MIC90 (K. pneumoniae β11) of 4 µg/mL (≈ 5.04 µM), an MIC90 (K. pneumoniae β13; Klebsiella pneumoniae, read-out: MIC90) of 1 µg/mL (≈ 1.26 µM) and an MIC90 (K. pneumoniae β14) of 32 µg/mL (≈ 40.3 µM). For the same molecule, the MIC90 (K. pneumoniae β9) was 0.5 µg/mL (≈ 0.63 µM), the MIC90 (M. catarrhalis 2524; Moraxella catarrhalis, read-out: MIC90) was 0.25 µg/mL (≈ 0.315 µM) and the MIC90 (P. aeruginosa 1912E; Pseudomonas aeruginosa, 1912E, read-out: MIC90) was 0.5 µg/mL (≈ 0.63 µM). It also gave an MIC90 (P. aeruginosa 37) of 0.5 µg/mL (≈ 0.63 µM), an MIC90 (P. aeruginosa 40) of 1 µg/mL (≈ 1.26 µM) and an MIC90 (P. aeruginosa 43) of 1 µg/mL (≈ 1.26 µM). The MIC90 (P. aeruginosa 6065Y; Pseudomonas aeruginosa, read-out: MIC90) was 0.5 µg/mL (≈ 0.63 µM), the “number of clinical isolates that showed the respective MIC value” (from here on “number”) ([2]; MIC 0.125 ug/mL) was 1 and the “number” value ([2]; MIC 2 ug/mL) was 2. The “number” value ([2]; MIC >16 ug/mL) was 3, the “number” value ([3]; MIC 0.25 ug/mL) was 1 and the “number” value ([3]; MIC 1 ug/mL) was 1. For the same molecule, the “number” value ([3]; MIC 2 ug/mL) was 3, the “number” value ([3]; MIC 4 ug/mL) was 2 and the “number” value ([3]; MIC 8 ug/mL) was 3. For the same molecule, the “number” value ([3]; MIC 16 ug/mL) was 2, the “number” value ([3]; MIC >16 ug/mL) was 26 and the “number” value ([4]; MIC 0.0625 ug/mL) was 1. For the same molecule, the “number” value ([4]; MIC 0.25 ug/mL) was 5, the “number” value ([4]; MIC 0.5 ug/mL) was 2 and the “number” value ([4]; MIC 1 ug/mL) was 1. For the same molecule, the “number” value ([4]; MIC 2 ug/mL) was 2, the “number” value ([4]; MIC 4 ug/mL) was 1 and the “number” value ([4]; MIC 8 ug/mL) was 1. For the same molecule, the “number” value ([4]; MIC >16 ug/mL) was 3, the AUCnorm [5] was 4.03 kg·h/L and the “Cmax,norm” value [5] was 7.58 kg/L. It also gave an AUC [5] of 40300 ng·h/mL, a Cmax [5] of 75.8 µg/mL and a Tmax [5] of 1.2 min. The clearance [5] was 4.17 mL/min/kg, the half-life [5] was 37.2 min and the Vd [5] was 0.2 L/kg. The “antibacterial activity (in words)” value (19 clinical isolates) was “significantly improved”.

With `CC(C)(O/N=C(\C(=O)N[C@@H]1C(=O)N2C(C(=O)[O-])=C(/C=C/C[n+]3cnc(N)c(NCCNC(=O)c4cc(=O)c(O)cn4O)c3)CSC12)c1csc(N)n1)C(=O)O` (stereo partly shown) [Compound 8] the MIC90 (A. baumannii 46) was 8 µg/mL (≈ 10 µM), the MIC90 (A. baumannii 49) was greater than 128 µg/mL and the MIC90 (A. baumannii 52) was greater than 128 µg/mL. It also gave an MIC90 [1] of 2 µg/mL (≈ 2.5 µM), an MIC90 (E. cloacae β19) of 32 µg/mL (≈ 40 µM) and an MIC90 (E. coli AG100) of 0.0625 µg/mL (≈ 0.0781 µM). It also gave an MIC90 (E. coli β4) of 0.5 µg/mL (≈ 0.625 µM), an MIC90 (K. pneumoniae 2011E) of 1 µg/mL (≈ 1.25 µM) and an MIC90 (K. pneumoniae β10) of less than 0.0625 µg/mL. It also gave an MIC90 (K. pneumoniae β11) of 32 µg/mL (≈ 40 µM), an MIC90 (K. pneumoniae β13) of 0.25 µg/mL (≈ 0.313 µM) and an MIC90 (K. pneumoniae β14) of 8 µg/mL (≈ 10 µM). The MIC90 (K. pneumoniae β9) was 0.5 µg/mL (≈ 0.625 µM), the MIC90 (M. catarrhalis 2524) was 0.5 µg/mL (≈ 0.625 µM) and the MIC90 (P. aeruginosa 1912E) was 1 µg/mL (≈ 1.25 µM). For the same molecule, the MIC90 (P. aeruginosa 37) was 1 µg/mL (≈ 1.25 µM), the MIC90 (P. aeruginosa 40) was 0.5 µg/mL (≈ 0.625 µM) and the MIC90 (P. aeruginosa 43) was 1 µg/mL (≈ 1.25 µM). For the same molecule, the MIC90 (P. aeruginosa 6065Y) was 4 µg/mL (≈ 5 µM), the “number” value ([2]; MIC 0.5 ug/mL) was 1 and the “number” value ([2]; MIC >16 ug/mL) was 5. The “number” value ([3]; MIC 0.25 ug/mL) was 1, the “number” value ([3]; MIC 8 ug/mL) was 1 and the “number” value ([3]; MIC <0.0625 ug/mL) was 1. For the same molecule, the “number” value ([3]; MIC >16 ug/mL) was 35, the “number” value ([4]; MIC 0.125 ug/mL) was 2 and the “number” value ([4]; MIC 0.25 ug/mL) was 1. For the same molecule, the “number” value ([4]; MIC 0.5 ug/mL) was 2, the “number” value ([4]; MIC 1 ug/mL) was 2 and the “number” value ([4]; MIC 2 ug/mL) was 2. For the same molecule, the “number” value ([4]; MIC 4 ug/mL) was 3, the “number” value ([4]; MIC 8 ug/mL) was 1 and the “number” value ([4]; MIC >16 ug/mL) was 3. For the same molecule, the AUCnorm [5] was 5.46 kg·h/L, the “Cmax,norm” value [5] was 19.61 kg/L and the AUC [5] was 54600 ng·h/mL. It also gave a Cmax [5] of 196 µg/mL, a Tmax [5] of 1.2 min and a clearance [5] of 3 mL/min/kg. For the same molecule, the half-life [5] was 52.2 min, the Vd [5] was 0.09 L/kg and the “antibacterial activity (in words)” value (19 clinical isolates) was “significantly improved”.
